Like-named read-outs stand apart in the source and are kept apart here.
Key:
[1] = oral; cited from earlier work
[2] = Procedure: 1 gram mole equivalent of (S)-2,6-diaminohexanoic acid is added to the above ethyl acetate solution and stirred at ambient room temperature.
CYP3A4 = settings: cited from earlier work
[3] = cited from earlier work

## CC(C)c1c(C(=O)Nc2ccccc2)c(-c2ccccc2)c(-c2ccc(F)cc2)n1CC[C@@H](O)C[C@@H](O)CC(=O)O (relative stereo) [atorvastatin, [R—(R*,R*)]-2-(4-fluorophenyl)-β,δ-dihydroxy-5-((1-methylethyl)-3-phenyl-4-[(phenylamino)-carbonyl]-1H-pyrrole-1-heptanoic acid]
[1]
  orally administered drug absorbed from the intestine: about 30%

## CC(C)c1nc(N(C)S(C)(=O)=O)nc(-c2ccc(F)cc2)c1/C=C/[C@@H](O)C[C@@H](O)CC(=O)O [Rosuvastatin acid]
[2]
  solubility in water (in words): water insoluble

## CC(C)c1c(C(=O)Nc2ccccc2)c(-c2ccccc2)c(-c2ccc(F)cc2)n1CC[C@@H]1C[C@@H](O)CC(=O)O1 [atorvastatin lactone]
CYP3A4
  affinity to CYP3A4 compared with the acid: significantly higher affinity
CYP3A4; human liver microsomes
  CYP-dependent metabolism to ortho-hydroxy metabolite, compared with atorvastatin acid: 20 fold
  CYP-dependent metabolism to para-hydroxy metabolite, compared with atorvastatin acid: 83 fold

## CC[C@H](CC[C@@H](C)[C@H]1CC[C@H]2[C@@H]3CC=C4C[C@@H](O)CC[C@]4(C)[C@H]3CC[C@]12C)C(C)C [beta sitosterol]
[3]; linked as an ester to decanoic acid
  beta sitosterol soluble in triolein oil: 1.1%
[3]; linked as an ester to lauric acid
  beta sitosterol soluble in triolein oil: 0.6%
[3]; linked as an ester to palmitic acid
  beta sitosterol soluble in triolein oil: 0.1%
